From ChEMBL document CHEMBL1141727, “Isolation and cytotoxic evaluation of marine sponge-derived norterpene peroxides” (J Nat Prod, 1998)

Tests used:
Assay type in all cases: functional
OVCAR-8 = test: Growth inhibition of human OVCAR8 cells
SN12C = test: Growth inhibition of human SN12C cells
SK-OV-3 = test: Growth inhibition of human SKOV3 cells
A549 = test: Growth inhibition of human A549 cells
UACC-257 = test: Growth inhibition of human UACC257 cells
SF-295 = test: Growth inhibition of human SF295 cells
NCI-H460 = test: Growth inhibition of human NCI-H460 cells
HL-60(TB) = test: Growth inhibition of human HL-60(TB) cells
OVCAR-4 = test: Growth inhibition of human OVCAR4 cells
HOP-92 = test: Growth inhibition of human HOP92 cells
KM12 = test: Growth inhibition of human KM12 cells
OVCAR-3 = test: Growth inhibition of human OVCAR-3 cells
P388 = test: Growth inhibition of mouse P388 cells assessed as zone units at 50 ug/disk by disk diffusion agar colony formation assay
SF-539 = test: Growth inhibition of human SF539 cells
HOP-62 = test: Growth inhibition of human HOP62 cells
MCF7 = test: Growth inhibition of human MCF7 cells
NCI-H226 = test: Growth inhibition of human NCI-H226 cells
SF-268 = test: Growth inhibition of human SF268 cells
T47D = test: Growth inhibition of human T47D cells
U-251 = test: Growth inhibition of human U251 cells
SK-MEL-28 = test: Growth inhibition of human SK-MEL-28 cells
SNB-19 = test: Growth inhibition of human SNB19 cells
786-0 = test: Growth inhibition of human 786-0 cells
OVCAR-5 = test: Growth inhibition of human OVCAR5 cells
BT-549 = test: Growth inhibition of human BT549 cells
CAKI-1 = test: Growth inhibition of human Caki1 cells
NCI-H322M = test: Growth inhibition of human NCI-H322M cells
EKVX = test: Growth inhibition of human EKVX cells
MDA-MB-231 = test: Growth inhibition of human MDA-MB-231 cells
MOLT-4 = test: Growth inhibition of human MOLT4 cells
CX-1 = test: Growth inhibition of human CX-1 cells assessed as zone units at 50 ug/disk by disk diffusion agar colony formation assay
HCT-116 = test: Growth inhibition of human HCT116 cells
PO3 = test: Growth inhibition of mouse PO3 cells assessed as zone units at 50 ug/disk by disk diffusion agar colony formation assay
IGROV-1 = test: Growth inhibition of human IGROV1 cells
LOX IMVI = test: Growth inhibition of human LOXIMVI cells
TK-10 = test: Growth inhibition of human TK10 cells
[1] = Growth inhibition of human H116 cells assessed as zone units at 50 ug/disk by disk diffusion agar colony formation assay
NCI-H23 = test: Growth inhibition of human NCI-H23 cells
SW-620 = test: Growth inhibition of human SW620 cells
MDA-MB-435 = test: Growth inhibition of human MDA-MB-435 cells
COLO 205 = test: Growth inhibition of human COLO205 cells
SK-MEL-2 = test: Growth inhibition of human SK-MEL-2 cells
MDA-N = test: Growth inhibition of human MDA-N cells
MC-38 = test: Growth inhibition of mouse C38 cells assessed as zone units at 50 ug/disk by disk diffusion agar colony formation assay
HT-29 = test: Growth inhibition of human HT-29 cells
SK-MEL-5 = test: Growth inhibition of human SK-MEL-5 cells
L1210 = test: Growth inhibition of mouse L1210 cells assessed as zone units at 50 ug/disk by disk diffusion agar colony formation assay
ACHN = test: Growth inhibition of human ACHN cells
HCC 2998 = test: Growth inhibition of human HCC2998 cells
[2] = Growth inhibition of human MCF7/ADR resistant cells; conditions: NCI/ADR-RES
HCT-15 = test: Growth inhibition of human HCT15 cells
[3] = Growth inhibition of mouse M17/ADR cells assessed as zone units at 50 ug/disk by disk diffusion agar colony formation assay
PC-3 = test: Growth inhibition of human PC3 cells
UO-31 = test: Growth inhibition of human UO31 cells
M14 = test: Growth inhibition of human M14 cells
A498 = test: Growth inhibition of human A498 cells
RXF 393 = test: Growth inhibition of human […] cells
SNB-75 = test: Growth inhibition of human SNB75 cells

**Q.** Which results are given for `CC1=C(CC/C(C)=C/CC[C@@]2(C)CC[C@H]([C@H](C)C(=O)O)OO2)C(C)(C)CCC1`?
**A.** GI50 (OVCAR-8): > 5000 nM; GI50 (SN12C): > 5000 nM; GI50 (SK-OV-3): > 5000 nM; GI50 (A549): > 5000 nM; GI50 (UACC-257): > 5000 nM; GI50 (SF-295): > 5000 nM; GI50 (NCI-H460): > 5000 nM; GI50 (HL-60(TB)): 1770 nM; GI50 (OVCAR-4): > 5000 nM; GI50 (HOP-92): > 5000 nM; GI50 (KM12): > 5000 nM; GI50 (OVCAR-3): > 5000 nM; Activity (P388): 110 Zone units; GI50 (SF-539): > 5000 nM; GI50 (HOP-62): > 5000 nM; GI50 (MCF7): > 5000 nM; GI50 (NCI-H226): > 5000 nM; GI50 (SF-268): > 5000 nM; GI50 (T47D): > 5000 nM; GI50 (U-251): > 5000 nM; GI50 (SK-MEL-28): 430 nM; GI50 (SNB-19): > 5000 nM; GI50 (786-0): > 5000 nM; GI50 (OVCAR-5): > 5000 nM; GI50 (BT-549): > 5000 nM; GI50 (CAKI-1): > 5000 nM; GI50 (NCI-H322M): > 5000 nM; GI50 (EKVX): > 5000 nM; GI50 (MDA-MB-231): > 5000 nM; GI50 (MOLT-4): > 5000 nM; Activity (CX-1): 100 Zone units; GI50 (HCT-116): > 5000 nM; Activity (PO3): 40 Zone units; GI50 (IGROV-1): 1110 nM; GI50 (LOX IMVI): 2170 nM; GI50 (TK-10): > 5000 nM; Activity [1]: 80 Zone units; GI50 (NCI-H23): > 5000 nM; GI50 (SW-620): > 5000 nM; GI50 (MDA-MB-435): > 5000 nM; GI50 (COLO 205): > 5000 nM; GI50 (SK-MEL-2): > 5000 nM; GI50 (MDA-N): > 5000 nM; Activity (MC-38): 60 Zone units; GI50 (HT-29): > 5000 nM; GI50 (SK-MEL-5): > 5000 nM; Activity (L1210): 110 Zone units; GI50 (ACHN): > 5000 nM; GI50 (HCC 2998): > 5000 nM; GI50 [2]: > 5000 nM; GI50 (HCT-15): > 5000 nM; Activity [3]: 80 Zone units; GI50 (PC-3): > 5000 nM; GI50 (UO-31): > 5000 nM; GI50 (M14): > 5000 nM; GI50 (A498): > 5000 nM; GI50 (RXF 393): > 5000 nM; GI50 (SNB-75): > 5000 nM

**Q.** What does the source list for `C=C1CCC[C@H]2[C@](C)(CC[C@]3(C)CC[C@@H]([C@@H](C)C(=O)O)OO3)[C@@H](C)CC[C@]12C` [SIGMOSCEPTRELLIN C]?
**A.** GI50 (OVCAR-8): 2530 nM; GI50 (SN12C): 780 nM; GI50 (SK-OV-3): 970 nM; GI50 (A549): 940 nM; GI50 (UACC-257): > 5000 nM; GI50 (SF-295): 820 nM; GI50 (NCI-H460): 600 nM; GI50 (HL-60(TB)): 140 nM; GI50 (OVCAR-4): 950 nM; GI50 (HOP-92): 1080 nM; GI50 (KM12): 950 nM; GI50 (OVCAR-3): 990 nM; Activity (P388): 220 Zone units; GI50 (SF-539): 1070 nM; GI50 (HOP-62): 1040 nM; GI50 (MCF7): 3790 nM; GI50 (NCI-H226): > 5000 nM; GI50 (SF-268): 1040 nM; GI50 (T47D): 860 nM; GI50 (U-251): 930 nM; GI50 (SK-MEL-28): 2370 nM; GI50 (SNB-19): > 5000 nM; GI50 (786-0): 500 nM; GI50 (OVCAR-5): 2720 nM; GI50 (BT-549): 960 nM; GI50 (CAKI-1): 600 nM; GI50 (NCI-H322M): 4190 nM; GI50 (EKVX): 1090 nM; GI50 (MDA-MB-231): 1810 nM; GI50 (MOLT-4): 840 nM; GI50 (HCT-116): 1060 nM; Activity (PO3): 190 Zone units; GI50 (IGROV-1): 100 nM; GI50 (LOX IMVI): 160 nM; GI50 (TK-10): 1490 nM; Activity [1]: 230 Zone units; GI50 (NCI-H23): 1000 nM; GI50 (SW-620): 1160 nM; GI50 (MDA-MB-435): 2060 nM; GI50 (COLO 205): 970 nM; GI50 (SK-MEL-2): > 5000 nM; GI50 (MDA-N): 910 nM; GI50 (HT-29): 1030 nM; GI50 (SK-MEL-5): 1940 nM; Activity (L1210): 220 Zone units; GI50 (ACHN): 920 nM; GI50 (HCC 2998): 1030 nM; GI50 [2]: 770 nM; GI50 (HCT-15): 1160 nM; Activity [3]: 220 Zone units; GI50 (PC-3): 1770 nM; GI50 (UO-31): 900 nM; GI50 (M14): > 5000 nM; GI50 (A498): 1590 nM; GI50 (RXF 393): 2950 nM; GI50 (SNB-75): 830 nM
